Molecules are shown by their SMILES.

This data set is described as follows: HILIC, Waters ACQUITY UPLC BEH Amide, 100 × 2.1 mm, 1.7 µm; A: water + 0.125% formic acid + 10 mM ammonium formate; B: 5% water + 95% acetonitrile + 0.125% formic acid + 10 mM ammonium formate; gradient (min/%B) 0/100 2/100 7.7/70 9.5/40 10.25/30 12.75/100 17/100. The note with it: stereoisomer not certain.
As to `Cc1onc(-c2ccccc2)c1-c1ccc(S(N)(=O)=O)cc1` [Valdecoxib], the LC retention time amounted to 1.01 min. Then `CC(=O)OCCc1ccccc1` [Phenethylacetate], with 1.02 min; and `O=CC=Cc1ccccc1` [Cinnamaldehyde], with 9.18 min; and `O=c1cc[nH]c2ccccc12` [4-Hydroxyquinoline], with 1.69 min. `CN1CCN(CCCN2c3ccccc3Sc3ccc(Cl)cc32)CC1` [Prochlorperazine]: the LC retention time worked out at 2.56 min. Then `COc1c2ccoc2cc2oc(=O)ccc12` [5-Methoxypsoralen], with 1.07 min; and `COC1C(CO)OC(n2ccc(=O)[nH]c2=O)C1O` (stereo not drawn) [3'-O-Methyluridine], with 2.42 min; and `CC(=O)NCCCCC(N)C(=O)O` (stereo not drawn) [N-epsilon-Acetyllysine], with 8.03 min. The figure for `CC(=O)CC(C)(C)O` [4-Hydroxy-4-methyl-2-pentanone] is 4.88 min; for `CCC(=O)OC(Cc1ccccc1)(c1ccccc1)C(C)CN(C)C` (stereo not drawn) [Propoxyphene] it is 2.01 min; for `CCOC(=O)c1cncn1C(C)c1ccccc1` (stereo not drawn) [Etomidate] it is 0.98 min.

For `NCCC(=O)O` [beta-Alanine], the LC retention time amounted to 8.02 min. Consider `CC12CC(=O)C3C(CCC4=CC(=O)CCC43C)C1CCC2=O` (stereo not drawn) [Adrenosterone], for which the LC retention time worked out at 1.1 min. The figure for `O=CCc1ccccc1` [Phenylacetaldehyde] is 5.4 min; for `CCCN1CCCCC1C(=O)Nc1c(C)cccc1C` (stereo not drawn) [Ropivacaine] it is 2.49 min.

As for `C=C(C)C1CC=C(C)CC1` (stereo not drawn) [Limonene], the LC retention time was 0.92 min. The figure for `CSc1ncnc2nc[nH]c12` [6-Methylmercaptopurine] is 1.49 min; for `CN1CCCC(n2nc(Cc3ccc(Cl)cc3)c3ccccc3c2=O)CC1` (stereo not drawn) [Azelastine] it is 2.95 min; for `c1ccc(Cn2ccnc2)cc1` [1-Benzylimidazole] it is 1.63 min. The figure for `NC(CS)C(=O)O` (stereo not drawn) [Cysteine] is 5.31 min; for `Nc1ccn(C2CSC(CO)O2)c(=O)n1` (stereo not drawn) [Lamivudine] it is 3.4 min. The figure for `Cc1nnc2n1-c1ccc(Cl)cc1C(c1ccccc1)=NC2` [Alprazolam] is 1.34 min. As for `OCC1OC(n2cnc3c(NC4CCCC4O)ncnc32)C(O)C1O` (stereo not drawn) [N-2-Hydroxycyclopentyladenosine], the LC retention time turned out to be 3.48 min. Regarding `NCC(=O)N1CCCC1C(=O)O` (stereo not drawn) [Gly-Pro], the LC retention time is 8.62 min. As for `CC(CN(C)C)CN1c2ccccc2CCc2ccccc21` (stereo not drawn) [Trimipramine], the LC retention time was 2.25 min. Then `NC(CC(=O)O)c1ccc(O)cc1` (stereo not drawn) [3-Amino-3-(4-hydroxyphenyl)propionic acid], with 7.42 min. The figure for `CNCCc1cnc[nH]1` [N-alpha-methylhistamine] is 7.48 min; for `O=C(O)CCc1nc(-c2ccccc2)c(-c2ccccc2)o1` [Oxaprozin] it is 1.11 min.

Regarding `COc1cc(C)c(Cc2cnc(N)nc2N)cc1OC` [Ormetroprim], the LC retention time is 4.19 min. The figure for `Cn1c(NCCN(CCO)CCCc2ccc([N+](=O)[O-])cc2)cc(=O)n(C)c1=O` [Nifekalant] is 3.21 min.

With `CC(C)(O)CC(=O)O` [beta-Hydroxyisovaleric acid], the LC retention time was 4.55 min. Then `NC(N)=NC(=O)c1nc(Cl)c(N)nc1N` [Amiloride], with 5.52 min.

Turning to `O=C(CO)c1ccccc1` [2-Hydroxyacetophenone], the LC retention time was found to be 4.36 min. For the compound `CC(=O)NC(CC(C)C)C(=O)O` (stereo not drawn) [N-Acetylleucine], the LC retention time stood at 2.29 min. Then `CCN1CCCC1CNC(=O)c1cc(S(=O)(=O)CC)c(N)cc1OC` (stereo not drawn) [Amisulpride], with 2.76 min; and `CC(C)NCC(O)COc1ccc(CCOCC2CC2)cc1` (stereo not drawn) [Betaxolol], with 3.05 min; and `COC(=O)C1=C(C)NC(C)=C(C(=O)OC(C)C)C1c1cccc2nonc12` (stereo not drawn) [Isradipine], with 0.95 min. For `O=C(O)C=Cc1cnc[nH]1` [Urocanic acid], the LC retention time stood at 3.69 min.

With `NC(C(=O)NC1C(=O)N2C(C(=O)O)=C(CSc3cn[nH]n3)CSC12)c1ccc(O)cc1` (stereo not drawn) [Cefatrizine], the LC retention time turned out to be 7.98 min. Then `C=C1CC2C(CCC3(C)C(=O)CCC23)C2(C)C=CC(=O)C=C12` (stereo not drawn) [Exemestane], with 0.98 min; and `O=C(O)CCc1ccccc1` [Hydrocinnamic acid], with 8.71 min; and `Nc1ccccc1O` [2-Aminophenol], with 1.22 min. Then `OCC1OC(OC2(CO)OC(CO)C(O)C2O)C(O)C(O)C1O` (stereo not drawn) [Sucrose], with 8.05 min.

Turning to `OCc1ccccc1OC1OC(CO)C(O)C(O)C1O` (stereo not drawn) [Salicin], the LC retention time amounted to 4.48 min. Consider `CC(=O)Nc1ccc(OC2OC(C(=O)O)C(O)C(O)C2O)cc1` (stereo not drawn) [Acetaminophen glucuronide], for which the LC retention time was 7.73 min. With `CCC=CCC1C(=O)CCC1CC(=O)OC` (stereo not drawn) [Methyl jasmonate], the LC retention time stood at 1.04 min.

On to `CC(=O)NC(CO)C(=O)O` (stereo not drawn) [N-Acetylserine], for which the LC retention time turned out to be 7.67 min.

In the case of `O=c1ccc2ccccc2o1` [Coumarin], the LC retention time is 1.08 min. Then `OCC1OC(n2cnc3c(NC4CCCC4)nc(Cl)nc32)C(O)C1O` (stereo not drawn) [2-Chloro-N6-cyclopentyladenosine], with 1.47 min; and `O=C(O)C1CCCCN1` (stereo not drawn) [Pipecolic acid], with 7.83 min. The figure for `CCS(=O)(=O)CCn1c([N+](=O)[O-])cnc1C` [Tinidazole] is 1.04 min; for `CS(=O)(=O)Nc1ccc(Cc2noc(-c3ccc4[nH]cc(CCN)c4c3)n2)cc1` [L-694,247] it is 5.25 min; for `C=COC(N)=O` [Vinyl Carbamate] it is 1.34 min. Regarding `CC12CCC3c4ccc(O)cc4CCC3C1CC(OC1OC(C(=O)O)C(O)C(O)C1O)C2O` (stereo not drawn) [16-Glucuronide-estriol], the LC retention time came to 6.49 min. For the compound `COC1C(O)CC(=O)OC(C)CC=CC=CC(O)C(C)CC(CC=O)C1OC1OC(C)C(OC2CC(C)(O)C(OC(=O)CC(C)C)C(C)O2)C(N(C)C)C1O` (stereo not drawn) [Kitasamycin], the LC retention time stood at 2.04 min.

As to `Cc1cc2nc[nH]c2cc1C` [5,6-Dimethylbenzimidazole], the LC retention time stood at 1.82 min. For `CN(C)CCC(c1ccc(Br)cc1)c1ccccn1` (stereo not drawn) [Dexbrompheniramine], the LC retention time is 2.56 min. Consider `NNCCc1ccccc1` [Phenelzine], for which the LC retention time stood at 4.45 min.

Turning to `CN(C)C(CCCN=C(N)N)C(=O)O` (stereo not drawn) [N,N-Dimethylarginine], the LC retention time was 9.1 min. As to `C[C@](N)(Cc1cnc[nH]1)C(=O)O` [alpha-Methylhistidine], the LC retention time was determined as 8.68 min. The figure for `CC(=O)C1(O)Cc2c(O)c3c(c(O)c2C(OC2CC(N)C(O)C(C)O2)C1)C(=O)c1ccccc1C3=O` (stereo not drawn) [Idarubicin] is 5.42 min; for `O=C(O)c1cc(=O)c2ccccc2[nH]1` [Kynurenic acid] it is 6.15 min; for `CC(C=CC1=C(C)CCCC1(C)C)=CC=CC(C)=CC(=O)O` [Retinoic acid] it is 1.11 min.

As for `CNC[C@H](N)C(=O)O` [beta-N-Methylaminoalanine], the LC retention time came to 9.32 min. In the case of `CCC(C(N)=O)N1CCCC1=O` (stereo not drawn) [Levetiracetam], the LC retention time stood at 1.45 min. As for `NC(Cc1ccc(O)c([N+](=O)[O-])c1)C(=O)O` (stereo not drawn) [3-Nitrotyrosine], the LC retention time is 6.88 min. `COC(=O)C1=C(C)NC(C)=C(C(=O)OC)C1c1ccccc1[N+](=O)[O-]` [Nifedipine]: the LC retention time is 1.02 min. Turning to `NC(N)=NCCCC(N)C(=O)NCC(=O)O` (stereo not drawn) [Arg-Gly], the LC retention time amounted to 9.85 min.

Consider `CC(=O)N1CCN(c2ccc(OCC3COC(Cn4ccnc4)(c4ccc(Cl)cc4Cl)O3)cc2)CC1` (stereo not drawn) [Ketoconazole], for which the LC retention time came out at 1.73 min.

Take `CC(=O)OCc1ccccc1` [Benzylacetate]: the LC retention time amounted to 8.71 min. For `COc1c(N2CC3CCCNC3C2)c(F)cc2c(=O)c(C(=O)O)cn(C3CC3)c12` (stereo not drawn) [Moxifloxacin], the LC retention time was determined as 4.69 min. Then `C#CCN(C)C(C)Cc1ccccc1` (stereo not drawn) [Selegiline], with 1.5 min. `CC(=O)NCC1CN(c2ccc(N3CCOCC3)c(F)c2)C(=O)O1` (stereo not drawn) [Linezolide]: the LC retention time amounted to 1.15 min. With `COc1cc(CNC(=O)CCCCC=CC(C)C)ccc1O` [Capsaicin], the LC retention time worked out at 1 min.

Turning to `CC(O)C(O)C1=Nc2c(nc(N)[nH]c2=O)NC1` (stereo not drawn) [7,8-Dihydrobiopterin], the LC retention time is 7.18 min. The figure for `CCCCCCCCCCCCCC(=O)OC(CO)CO` [2-Myristoylglycerol] is 1.01 min; for `CC(=O)NCCCCNCCCN` [N8-Acetylspermidine] it is 8.87 min; for `NCC(O)CCC(N)C(=O)O` (stereo not drawn) [delta-Hydroxylysine] it is 9.77 min.

`NC(CCCC(N)C(=O)O)C(=O)O` (stereo not drawn) [2,6-Diaminopimelic acid]: the LC retention time worked out at 9.88 min. The figure for `CC12CCC(=O)C=C1CCC1C2CCC2(C)C1CCC2(O)C(=O)CO` (stereo not drawn) [Cortodoxone] is 1.15 min. The figure for `COc1ccccc1OCC(O)CN1CCN(CC(=O)Nc2c(C)cccc2C)CC1` (stereo not drawn) [Ranolazine] is 2.79 min. With `CN(C)CCN(Cc1ccccc1)c1ccccn1` [Tripelennamine], the LC retention time was determined as 1.98 min. With `CC(=O)Oc1ccccc1C(=O)Nc1ncc([N+](=O)[O-])s1` [Nitazoxanide], the LC retention time is 1 min.
